Results on 16 compounds are retold here after patent publication US11286249B2, “Pyrrolidine compounds” (Eli Lilly and Company, priority 2019, dated 2022).

One may read the IC50 as the concentration that gives 50% inhibition. Higher therefore signals weaker potency in that assay. As usually defined, the ED50 is the midpoint of the dose-response relation. A low value points to an effect at a small dose.

One assay addresses human Apo(a) protein (Homo sapiens, UniProt P08519). In words: In vitro Apo(a) binding assay (competitive SPA radioligand binding). The settings on record: human Apo(a) with 17 Kringle repeats; geometric mean ± SEM (n). As for the experimental part:
The in vitro binding affinity of compounds to the intended target human Apo(a) protein is tested in a competitive binding assay. Human Apo(a) protein containing 17 Kringle repeats is affinity purified from conditioned media of transiently transfected HEK-293F cells. All reagents are prepared in assay buffer containing 50 mM Tris-HCl pH 7.4, 0.1% BSA. The binding assay is conducted by adding to each well of a clear-bottom plate […] of (1) test compound in dilution series (final concentration […]), (2) Apo(a) protein (6 ng/well), (3) re-suspended Wheat Germ Agglutinin Polyvinyltoluene SPA beads (20 mg/ml), and (4) the radioligand, tritium-labeled (2S)-3-[3-[2-oxo-3-[3-(tritritiomethoxy)phenyl]imidazolidin-1-yl]phenyl]-2-[(3R)-pyrrolidin-3-yl]propanoic acid; hydrochloride (final concentration 0.52 nM). Plates are incubated for 60 minutes at RT and counted on TRILUX LSC. […] Data are analyzed by fitting to a standard single site binding model and the IC50 for the Example test compound is determined. […] Inhibition of the assembly of the LDL particle with apo(a) through binding to the Apo(a) protein supports a reduction in Lp(a) levels.

Assay [1] has as its target assembly of Lp(a) from Apo(a) and the LDL particle (Homo sapiens, UniProt P08519). The experiment in a line: In vitro Lp(a) assembly assay (cell-free, HepG2 and HEK293 conditioned media, sandwich ELISA). In kind it is biochemical. As to conditions: inhibition of Lp(a) formation, 37° C. for 2 hrs; geometric mean ± SEM (n). As for the experimental part: The ability of compounds to inhibit the formation of Lp(a) particles in vitro is assessed by a cell-free assembly assay. Conditioned media (DMEM supplemented with 10% FBS, 20 mM HEPES, and 1× penicillin/streptomycin) is collected from confluent wild-type HepG2 cells (a source of endogenously expressed ApoB) and from a HEK293 stable cell line expressing human Apo(a) protein containing 17 Kringle repeats (selected on 1 mg/ml geneticin) after 24 hours of culture at 37° C. and 5% CO2. An in vitro assembly assay is conducted by combining equal parts of HepG2 and HEK293 conditioned media with the test compounds added in dilution series (final concentration 0.01˜100 nM). The reaction is incubated at 37° C. for 2 hrs and then stopped with the addition of 6-aminocaproic acid (EACA) to a final concentration of 150 mM. Lp(a) is detected using a sandwich ELISA with an anti-Lp(a) capture antibody and an HRP-conjugated anti-ApoB detection antibody. The ELISA is developed using TMB, stopped using 1 N sulfuric acid, and the signal is read at 450 nm on a Molecular Devices plate reader.

A further assay deals with plasma Lp(a). In words: In vivo Lp(a) inhibition in mice. As to conditions: for Lp(a) inhibition (% at 30 mpk): 30 mpk oral twice a day; for Lp(a) inhibition (% at 30 mpk) / ED50: day 3 at 8 h post morning oral dose; for Lp(a) inhibition (% at 30 mpk) / Lp(a) inhibition (%): mean ± SEM; for ED50: effective dose for 50% Lp(a) inhibition, oral, twice a day, ED50 ± standard error. As for the experimental part: The ability of compounds to reduce steady-state Lp(a) level in vivo is assessed in a transgenic mouse model capable of producing humanized Lp(a) particles. In vivo effects of Lp(a) disruptor compounds are tested in 7 to 17-month-old female double transgenic mice expressing human apoB-100 and human apo(a) containing 17 Kringle repeats: B6.SJL-Tg(APOB)1102Sgy Tg(Alb-LPA)32Arte. Mice are housed with standard light cycle (12 hrs. light/12 hrs. dark), at RT 72±8° F. and relative humidity of 30˜70%, and with free access to water and normal chow diet (Harlan Tecklad diet 2014). Mice are randomized to treatment groups (n=5/group) 3 to 5 days before the study by body weight and baseline plasma Lp(a) concentration using BRAT (Block Randomized Allocation Tool) for the study. Mice are orally dosed (or subcutaneously where noted) with vehicle (oral dose vehicle: 10 mL/kg, 1% HEC, 0.25% Tween80, 0.01% Antifoam; subcutaneous dose vehicle: 5 mL/kg saline) or test compound at various dose levels twice a day (6:30 am and […]) for 5 days. Blood is collected in heparin-coated capillary tubes via tail bleed. Twenty μL of each blood sample is transferred to a DBS card (Whatman Cat #: WB12 9243) for drug exposure analysis. The remaining blood samples are centrifuged to separate plasma. Lp(a) concentration in plasma is measured using a sandwich ELISA as described for the in vitro Lp(a) assembly assay. The % inhibition for each dose group is determined with the mean the Lp(a) level of the vehicle control group set to 0% inhibition. […] ED50 (effective dose for 50% Lp(a) inhibition) calculations as determined by Threshold Minimum Effective Dose analysis.

[2] abbreviates: 30 mg/kg oral twice a day, day 3 at 4 h post morning dose.

Where a name gives a salt, the structure may show the parent alone.

human Apo(a) protein, sequence (P08519 20-2040 limits assumed): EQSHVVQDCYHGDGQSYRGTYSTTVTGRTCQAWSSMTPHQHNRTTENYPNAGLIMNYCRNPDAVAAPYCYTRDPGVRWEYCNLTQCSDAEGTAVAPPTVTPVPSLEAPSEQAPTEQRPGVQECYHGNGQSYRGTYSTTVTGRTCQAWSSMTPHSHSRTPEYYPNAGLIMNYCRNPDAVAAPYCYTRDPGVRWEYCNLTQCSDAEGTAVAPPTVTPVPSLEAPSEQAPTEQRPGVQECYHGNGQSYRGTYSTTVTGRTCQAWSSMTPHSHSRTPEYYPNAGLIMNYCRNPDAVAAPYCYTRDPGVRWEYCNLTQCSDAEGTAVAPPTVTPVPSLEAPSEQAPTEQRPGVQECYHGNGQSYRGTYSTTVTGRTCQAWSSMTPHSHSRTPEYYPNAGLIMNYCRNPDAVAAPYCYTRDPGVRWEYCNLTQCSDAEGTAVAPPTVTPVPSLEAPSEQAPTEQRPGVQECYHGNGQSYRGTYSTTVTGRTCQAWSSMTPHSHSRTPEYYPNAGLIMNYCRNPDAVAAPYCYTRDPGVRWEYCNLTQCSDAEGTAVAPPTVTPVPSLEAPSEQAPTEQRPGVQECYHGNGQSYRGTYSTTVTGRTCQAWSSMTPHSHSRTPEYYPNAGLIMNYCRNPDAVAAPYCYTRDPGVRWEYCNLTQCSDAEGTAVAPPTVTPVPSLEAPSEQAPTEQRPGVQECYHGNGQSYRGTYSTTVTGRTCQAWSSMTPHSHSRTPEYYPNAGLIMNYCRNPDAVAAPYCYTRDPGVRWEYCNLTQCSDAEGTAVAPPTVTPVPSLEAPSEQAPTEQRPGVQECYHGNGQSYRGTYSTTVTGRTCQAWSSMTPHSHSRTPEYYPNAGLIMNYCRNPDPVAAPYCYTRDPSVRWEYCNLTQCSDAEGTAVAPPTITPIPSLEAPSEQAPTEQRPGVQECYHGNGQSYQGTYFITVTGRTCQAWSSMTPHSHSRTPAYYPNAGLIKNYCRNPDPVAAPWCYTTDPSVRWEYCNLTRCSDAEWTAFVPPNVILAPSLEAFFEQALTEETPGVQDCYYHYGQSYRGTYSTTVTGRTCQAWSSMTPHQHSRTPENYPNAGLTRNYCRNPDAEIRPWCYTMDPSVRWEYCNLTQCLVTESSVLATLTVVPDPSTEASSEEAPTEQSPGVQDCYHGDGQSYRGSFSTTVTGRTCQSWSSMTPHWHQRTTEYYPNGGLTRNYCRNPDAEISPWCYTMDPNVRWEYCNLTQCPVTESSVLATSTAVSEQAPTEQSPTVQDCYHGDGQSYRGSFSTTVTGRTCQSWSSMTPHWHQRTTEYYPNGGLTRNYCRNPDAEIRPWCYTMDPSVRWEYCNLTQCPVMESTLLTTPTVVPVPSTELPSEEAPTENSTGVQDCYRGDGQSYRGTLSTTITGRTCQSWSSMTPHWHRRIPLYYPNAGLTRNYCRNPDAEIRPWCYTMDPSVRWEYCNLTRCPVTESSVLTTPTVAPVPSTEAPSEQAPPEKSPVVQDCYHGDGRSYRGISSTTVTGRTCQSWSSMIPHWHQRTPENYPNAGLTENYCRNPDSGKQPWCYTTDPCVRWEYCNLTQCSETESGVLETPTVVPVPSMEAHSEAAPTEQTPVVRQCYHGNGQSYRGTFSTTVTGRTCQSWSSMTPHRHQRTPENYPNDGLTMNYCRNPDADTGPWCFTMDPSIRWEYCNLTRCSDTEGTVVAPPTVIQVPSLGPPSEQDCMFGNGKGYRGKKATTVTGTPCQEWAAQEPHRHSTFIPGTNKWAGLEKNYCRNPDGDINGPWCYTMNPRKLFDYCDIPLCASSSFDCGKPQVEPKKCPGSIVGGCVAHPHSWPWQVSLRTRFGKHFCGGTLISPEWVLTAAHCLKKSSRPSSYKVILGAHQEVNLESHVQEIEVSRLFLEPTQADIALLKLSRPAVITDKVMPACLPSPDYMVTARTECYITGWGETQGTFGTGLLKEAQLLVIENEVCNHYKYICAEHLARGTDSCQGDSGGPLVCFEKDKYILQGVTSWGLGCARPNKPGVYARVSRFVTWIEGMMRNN
assembly of Lp(a) from Apo(a) and the LDL particle, sequence (P08519 20-2040 limits assumed): as above

Take `O=C(O)[C@@H](Cc1cccc(CN(Cc2cccc(C[C@H](C(=O)O)[C@H]3CCNC3)c2)Cc2cccc(C[C@H](C(=O)O)[C@H]3CCNC3)c2)c1)[C@H]1CCNC1` [Example 1, (2S)-3-[3-[[Bis[[3-[(2S)-2-carboxy-2-[(3R)-pyrrolidin-3-yl]ethyl]phenyl]methyl]amino]methyl]phenyl]-2-[(3R)-pyrrolidin-3-yl]propanoic acid; tetrahydrochloride]: the IC50 on human Apo(a) protein was under 314 pM; in assay [1], 96.3 ± 23.3 pM. In addition, the “Lp(a) inhibition (% at 30 mpk)” value in the assay with plasma Lp(a) came out at 91 ± 0.73%. Further, in the assay on plasma Lp(a), the ED50 is recorded as 3.3 ± 0.53 mg/kg.
Regarding `O=C(O)[C@@H](Cc1cccc(CNCc2cccc(C[C@H](C(=O)O)[C@H]3CCNC3)c2)c1)[C@H]1CCNC1` [Example 3, (2S)-3-[3-[[[3-[(2S)-2-Carboxy-2-[(3R)-pyrrolidin-3-yl]ethyl]phenyl]methylamino]methyl]phenyl]-2-[(3R)-pyrrolidin-3-yl]propanoic acid; trihydrochloride], the IC50 is 2130 ± 159 pM on human Apo(a) protein and 934 ± 306 pM in assay [1].
On to `COc1cc(F)cc(CN(Cc2cccc(C[C@H](C(=O)O)[C@H]3CCNC3)c2)Cc2cccc(C[C@H](C(=O)O)[C@H]3CCNC3)c2)c1` [Example 5, (2S)-3-[3-[[[3-[(2S)-2-Carboxy-2-[(3R)-pyrrolidin-3-yl]ethyl]phenyl]methyl-[(3-fluoro-5-methoxy-phenyl)methyl]amino]methyl]phenyl]-2-[(3R)-pyrrolidin-3-yl]propanoic acid; trihydrochloride], for which the IC50 in assay [1] amounted to 170 ± 12.4 pM. Besides, the “Lp(a) inhibition (%)” value in the assay with plasma Lp(a) (3 mg/kg oral twice a day, day 3 at 4 h post morning dose) is recorded as 43.8 ± 4.24%.
Consider `CC(Cc1cccc(CN(Cc2cccc(CC(C)(C(=O)O)[C@H]3CCNC3)c2)Cc2cccc(CC(C)(C(=O)O)[C@H]3CCNC3)c2)c1)(C(=O)O)[C@H]1CCNC1` (stereo partly drawn) [Example 6, 3-[3-[[bis[[3-[2-carboxy-2-[(3R)-pyrrolidin-3-yl]propyl]phenyl]methyl]amino]methyl]phenyl]-2-methyl-2-[(3R)-pyrrolidin-3-yl]propanoic acid; tetrahydrochloride], for which the IC50 on human Apo(a) protein is under 314 pM; in assay [1], 108 ± 14.9 pM.
Regarding `O=C(O)[C@@H](Cc1cccc(Oc2cccc(C[C@H](C(=O)O)[C@H]3CCNC3)c2)c1)[C@H]1CCNC1` [Example 7, (2S)-3-[3-[3-[(2S)-2-carboxy-2-[(3R)-pyrrolidin-3-yl]ethyl]phenoxy]phenyl]-2-[(3R)-pyrrolidin-3-yl]propanoicacid; dihydrochloride], in assay [1], inhibition was half-maximal at 372 ± 46.4 pM (IC50). The “Lp(a) inhibition (%)” value with plasma Lp(a) (30 mg/kg subcutaneous dosing twice a day, day 3 at 4 h post morning dose) came to 44.6 ± 5.0%.
`O=C(O)[C@@H](Cc1cccc(OCCOc2cccc(C[C@H](C(=O)O)[C@H]3CCNC3)c2)c1)[C@H]1CCNC1` [Example 8, (2S)-3-[3-[2-[3-[(2S)-2-carboxy-2-[(3R)-pyrrolidin-3-yl]ethyl]phenoxy]ethoxy]phenyl]-2-[(3R)-pyrrolidin-3-yl]propanoic acid; dihydrochloride] came in with an IC50 in assay [1] of 288 ± 190 pM.
As for `O=C(O)[C@@H](Cc1cccc(COc2cccc(C[C@H](C(=O)O)[C@H]3CCNC3)c2)c1)[C@H]1CCNC1` [Example 9, (2S)-3-[3-[[3-[(2S)-2-Carboxy-2-[(3R)-pyrrolidin-3-yl]ethyl]phenoxy]methyl]phenyl]-2-[(3R)-pyrrolidin-3-yl]propanoic acid; dihydrochloride], the half-inhibitory concentration (IC50) in assay [1] was 359 ± 29.2 pM. Moreover, the “Lp(a) inhibition (%)” value with plasma Lp(a) (setting [2]) stood at 56.5 ± 2.77%.
In the same order, the values of `O=C(O)[C@@H](Cc1cccc(Sc2cccc(C[C@H](C(=O)O)[C@H]3CCNC3)c2)c1)[C@H]1CCNC1` [Example 10, (2S)-3-[3-[3-[(2S)-2-Carboxy-2-[(3R)-pyrrolidin-3-yl]ethyl]phenyl]sulfanylphenyl]-2-[(3R)-pyrrolidin-3-yl]propanoic acid; dihydrochloride] are 360 ± 119 pM and 43.6 ± 4.6%.
In the case of `O=C(O)[C@@H](Cc1cccc([S+]([O-])c2cccc(C[C@H](C(=O)O)[C@H]3CCNC3)c2)c1)[C@H]1CCNC1` [Example 11, (2S)-3-[3-[3-[(2S)-2-Carboxy-2-[(3R)-pyrrolidin-3-yl]ethyl]phenyl]sulfinylphenyl]-2-[(3R)-pyrrolidin-3-yl]propanoic acid; dihydrochloride], in assay [1], the IC50 was determined as 396 ± 241 pM.
`O=C(O)[C@@H](Cc1cccc(S(=O)(=O)c2cccc(C[C@H](C(=O)O)[C@H]3CCNC3)c2)c1)[C@H]1CCNC1` [Example 12, (2S)-3-[3-[3-[(2S)-2-Carboxy-2-[(3R)-pyrrolidin-3-yl]ethyl]phenyl]sulfonylphenyl]-2-[(3R)-pyrrolidin-3-yl]propanoicacid; dihydrochloride] registered an IC50 in assay [1] of 235 ± 50.9 pM. Further, the “Lp(a) inhibition (%)” value in the assay on plasma Lp(a) (30 mg/kg oral twice a day, day 3, samples taken at 8 h post oral dosing) is on record as 50 ± 3.82^3%.
Compound `O=C(O)[C@@H](Cc1cccc(CNc2cccc(C[C@H](C(=O)O)[C@H]3CCNC3)c2)c1)[C@H]1CCNC1` [Example 13, (2S)-3-[3-[[3-[(2S)-2-Carboxy-2-[(3R)-pyrrolidin-3-yl]ethyl]anilino]methyl]phenyl]-2-[(3R)-pyrrolidin-3-yl]propanoicacid; trihydrochloride] showed an IC50 in assay [1] of 2390 ± 610 pM.
At human Apo(a) protein, `O=C(O)[C@@H](Cc1cccc(Nc2cccc(C[C@H](C(=O)O)[C@H]3CCNC3)c2)c1)[C@H]1CCNC1` [Example 14, (2S)-3-[3-[3-[(2S)-2-Carboxy-2-[(3R)-pyrrolidin-3-yl]ethyl]anilino]phenyl]-2-[(3R)-pyrrolidin-3-yl]propanoic acid; dihydrochloride] came in with an IC50 of under 314 pM. The same compound had an IC50 in assay [1] of 348 ± 98.4 pM. In the assay with plasma Lp(a), the “Lp(a) inhibition (% at 30 mpk)” value is reported as 72 ± 2.23% and the ED50 turned out to be 14.6 ± 2.48 mg/kg.
`CN1CC[C@H]([C@H](Cc2cccc(Nc3cccc(C[C@H](C(=O)O)[C@H]4CCN(C)C4)c3)c2)C(=O)O)C1` [Example 15, (2S)-3-[3-[3-[(2S)-2-carboxy-2-[(3R)-1-methylpyrrolidin-3-yl]ethyl]anilino]phenyl]-2-[(3R)-1-methylpyrrolidin-3-yl]propanoic acid; dihydrochloride] displayed an IC50 in assay [1] of 54600 ± 9150 pM.
Turning to `O=C(O)[C@@H](Cc1cccc(NS(=O)(=O)Nc2cccc(C[C@H](C(=O)O)[C@H]3CCNC3)c2)c1)[C@H]1CCNC1` [Example 16, (2S,2′S)-3,3′-[Sulfonylbis(azanediyl-3,1-phenylene)]bis{2-[(3R)-pyrrolidin-3-yl]propanoic acid}; dihydrochloride], 563 ± 119 pM corresponded to half-maximal inhibition in assay [1] (IC50).
As to `Cl.O=C(O)[C@@H](Cc1ccccc1)[C@H]1CCNC1` [Example 17, (2S)-3-Phenyl-2-[(3R)-pyrrolidin-3-yl]propanoic acid; hydrochloride], in the assay on plasma Lp(a), the “Lp(a) inhibition (% at 30 mpk)” value stood at 60 ± 3.46% and the ED50 was 20.6 ± 1.79 mg/kg.
In the same order, the values of `Cl.O=C(O)[C@H](Cc1ccccc1)[C@@H]1CCNC1` [Example 18, (2R)-3-Phenyl-2-[(3S)-pyrrolidin-3-yl]propanoic acid; hydrochloride] are 68 ± 1.82% and 7.6 ± 2.43 mg/kg.
